Structures can show the parent of a compound that is named as a salt.
Experiments:
[1] = hydrolysate; as worded; cited from earlier work
physchem = test: physchem
Source text: Therefore, propylene glycol was used as a basic solvent in the formulation of the present patent.

Compound	Solubility in propylene glycol (in words) (physchem)	further results
COc1ccc([C@@H]2Sc3ccccc3N(CCN(C)C)C(=O)[C@@H]2O)cc1 [deacetyldiltiazem]		Activity relative to the activity of diltiazem hydrochloride [1]: 20%-40%
COc1ccc([C@@H]2Sc3ccccc3N(CCN(C)C)C(=O)[C@@H]2OC(C)=O)cc1 [diltiazem hydrochloride, reference compound]		solubility (physchem; organic solvent or mixture): 79 mg/mL
hydroxypropyl methylcellulose	insoluble	
sodium carboxymethylcellulose	insoluble	

Source: US12102683B2 (Auson Pharmaceuticals, Inc., priority 2022, dated 2024)
